Data from ChEMBL document CHEMBL1156000, “Synthesis of 2alpha-substituted-14-epi-previtamin D3 and its genomic activity” (Bioorg Med Chem Lett, 2009).
Activity calls are given as the source filed them. No cut-off for these calls is given here.

Assays:
[1] = target: T1, Vitamin D3 receptor (Homo sapiens) (UniProt P11473); settings: HOS
T1 sequence (whole entry): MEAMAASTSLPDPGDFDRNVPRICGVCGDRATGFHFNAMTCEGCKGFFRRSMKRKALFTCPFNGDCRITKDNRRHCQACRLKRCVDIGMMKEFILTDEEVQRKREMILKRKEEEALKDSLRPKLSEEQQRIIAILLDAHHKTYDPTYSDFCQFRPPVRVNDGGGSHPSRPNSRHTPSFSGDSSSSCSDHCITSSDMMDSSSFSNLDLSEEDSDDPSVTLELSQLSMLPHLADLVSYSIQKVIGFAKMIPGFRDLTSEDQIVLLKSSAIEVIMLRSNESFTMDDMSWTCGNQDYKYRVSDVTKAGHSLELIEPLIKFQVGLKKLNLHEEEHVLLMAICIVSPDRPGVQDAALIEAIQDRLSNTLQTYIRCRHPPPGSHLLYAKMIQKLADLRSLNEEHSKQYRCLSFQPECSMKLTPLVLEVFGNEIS
Description: Agonist activity at human VDR expressed in human HOS cells co-transfected with RXR gene assessed as osteocalcin promoter gene transactivation after 24 hrs by luciferase assay

[2] = target: T2, Vitamin D3 receptor (Gallus gallus) (UniProt O42392); assay: Displacement of [26,27-methyl-3H]1alpha,25-dihydroxyvitamin D3 from chick intestinal VDR after 1 hr by liquid scintillation counting
T2 sequence (whole entry): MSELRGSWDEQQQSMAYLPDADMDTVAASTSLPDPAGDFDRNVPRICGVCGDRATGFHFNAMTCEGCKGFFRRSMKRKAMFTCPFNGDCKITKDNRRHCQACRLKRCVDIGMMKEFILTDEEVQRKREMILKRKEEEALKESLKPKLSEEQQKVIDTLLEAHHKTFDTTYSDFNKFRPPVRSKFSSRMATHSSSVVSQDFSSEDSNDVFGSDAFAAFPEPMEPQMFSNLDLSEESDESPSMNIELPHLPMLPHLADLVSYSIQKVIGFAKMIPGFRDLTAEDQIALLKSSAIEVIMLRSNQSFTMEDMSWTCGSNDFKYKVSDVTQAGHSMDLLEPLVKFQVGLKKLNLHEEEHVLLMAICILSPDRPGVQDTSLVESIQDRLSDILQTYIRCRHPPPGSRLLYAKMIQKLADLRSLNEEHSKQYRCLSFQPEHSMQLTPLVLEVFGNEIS

SMILES | ED50 [1] [nM] | relative binding affinity (RBA) [2] | ED50 ([1]; tested as the 2H-labelled form) [nM] | relative binding affinity (RBA) ([2]; tested as the 2H-labelled form)
CC1=C(/C=C\C2=CCC[C@@]3(C)[C@@H]2CC[C@@H]3[C@H](C)CCCC(C)(C)O)C[C@@H](O)[C@H](c2ccccc2)[C@@H]1O | 0.88 | Active | – | –
CC1=C(/C=C\C2=CCC[C@@]3(C)[C@@H]2CC[C@@H]3[C@H](C)CCCC(C)(C)O)C[C@@H](O)[C@H](Cc2ccccc2)[C@@H]1O | 30.2 | Active | – | –
CC1=C(/C=C\C2=CCC[C@@]3(C)[C@@H]2CC[C@@H]3[C@H](C)CCCC(C)(C)O)C[C@@H](O)[C@H](OCCCO)[C@@H]1O | 0.95 | Active | – | –

Results, then the compound that gave them:

ED50 [1] [nM] | relative binding affinity (RBA) [2] | ED50 ([1]; tested as the 2H-labelled form) [nM] | relative binding affinity (RBA) ([2]; tested as the 2H-labelled form) | SMILES
5.77 | Active | – | – | CCCC[C@H]1[C@H](O)CC(/C=C\C2=CCC[C@@]3(C)[C@@H]2CC[C@@H]3[C@H](C)CCCC(C)(C)O)=C(C)[C@H]1O
– | – | 0.46 | Active | CC1=C(/C=C\C2=CCC[C@@]3(C)[C@@H]2CC[C@@H]3[C@H](C)CCCC(C)(C)O)C[C@@H](O)C[C@@H]1O
0.69 | Active | – | – | CC1=C(/C=C\C2=CCC[C@@]3(C)[C@@H]2CC[C@@H]3[C@H](C)CCCC(C)(C)O)C[C@@H](O)[C@H](CCCO)[C@@H]1O
0.12 | Active | – | – | CC1=C(/C=C\C2=CCC[C@@]3(C)[C@@H]2CC[C@@H]3[C@H](C)CCCC(C)(C)O)C[C@@H](O)[C@H](C)[C@@H]1O
